# Experimental data as given in patent US5270339A, “Phenoxybenzene derivative” (Kanagafuchi Kagaku Kogyo Kabushiki Kaisha, priority 1991, dated 1993).
# Counter-ions that a name gives are not always drawn.
# Experiments:
# [1] = Acute toxicity test, oral; type: in vivo, ddY male mice; conditions: mouse, in vivo, ddY mice, 2 weeks observation
# Protocol: With respect to the compounds 1 to 86 shown in Table 1 as test compounds, the acute toxicity was examined using ddY mice according to the following method.
# In each group, six male ddY mice weighing 27 to 30 g were employed. The compounds 1 to 86 suspended in an aqueous solution of 0.5% sodium carboxymethylcellulose were administered orally in a volume of 0.1 ml/10 g body weight. […] The LD50 (mg/kg) values were estimated from the ratio of the number of dead mice to the number of mice used.
# [2] = test system: experimental amnesia in mice induced by cycloheximide; test: Anti-amnesic effect: passive avoidance task (step-through), cycloheximide-induced amnesia; type: in vivo, ddY male mice; conditions: for Step-through latency: mean of group; for responders at 3 mg/kg / responders at 1 mg/kg: Mus musculus, mice with latency > 100 seconds, read-out: Ratio of memory
# Protocol: As experimental animals, Wistar male rats and ddY male mice were used for the tests after they were housed for a week under every 12 hours' dark-light cycle at room temperature of 24° to 26° C.
# The effect on experimental amnesia in mice induced by cycloheximide was evaluated.
# The experiment was carried out using an experimental apparatus of passive avoidance task for mice (made by Ohara-ika-sangyo K. K.) comprising a box divided into the two compartments of dark and light. That is, the dark compartment [a box having a reverse trapezoid cross section (height: 8 cm, base line: 5 cm, oblique line: 9.5 cm) and having the length of 14 cm] was shield from a light with a black plastic case and was floored with stainless grids for giving an electrical shock so that an electricity might be turned on a determined time after interception of a photobeam placed in the dark compartment. The light compartment made of transparent plastic (a box of the same shape as that of the dark compartment having the length of 16 cm, lightened from a location spaced 25 cm above by a 60 W electric lamp) was provided adjacent to the dark compartment. Between the two compartments, there was provided a circular entrance having the diameter of 3 cm with a guillotine door which could be opened and closed. By using the above-mentioned dark-light box, the experiment was carried out according to the following procedure.
# A mouse (5 week-old) previously conditioned in the dark-light box was put in the light compartment and the guillotine door was opened. Three seconds after the mouse moved into the dark compartment and interrupted the photobeam, 0.3 mA electrical shock was given to limbs for 3 seconds from the floor grid (aquisition trial). Just after the mouse rushed into the light compartment, the door was shut and the […] in the light compartment was picked out to return to his home cage. After 24 hours, the mouse was placed again in the light compartment and the period from the opening of the guillotine door to the time the mouse completely entered the dark compartment was recorded maximally 300 seconds as a step-through latency (retention trial).
# The amnesia was induced by subcutaneous injection of cycloheximide (120 mg/kg) dissolved in saline 10 minutes before the aquisition trial. As a control, the same amount of saline alone was administered. […]
# A ratio of number of mice showing the step-through latency of more than 100 seconds in the group was defined as a ratio of memory for convenience's sake.
# The step-through latency in Table 2 was the mean value for each treated group.
SMILES,LD50 at 336 h [1],Step-through latency ([2]; 3 mg/kg oral),responders at 3 mg/kg ([2]; 3 mg/kg oral),Step-through latency ([2]; 1 mg/kg oral),responders at 1 mg/kg ([2]; 1 mg/kg oral)
NC(=O)CCN1CCC(=Cc2cccc(Oc3ccccc3)c2)C1=O [Compound 33],≥ 500 mg/kg,,,,
O=C1NCCC1=Cc1ccc(Oc2ccccc2)c([N+](=O)[O-])c1 [Compound 7],≥ 500 mg/kg,113 s,50%,,
O=C1C(=Cc2cccc(Oc3ccccc3)c2)CCN1C(=O)c1ccccc1 [Compound 42],≥ 500 mg/kg,,,80 s,25%
O=C1C(=Cc2cccc(Oc3ccccc3)c2)CCN1Cc1ccccc1 [Compound 48],≥ 500 mg/kg,117 s,63%,,
S=C1NCCC1=Cc1cccc(Oc2ccccc2)c1 [Compound 86],≥ 500 mg/kg,70 s,25%,,
O=C1C(=Cc2cccc(Oc3ccccc3)c2)CCN1c1ccc(F)cc1F [Compound 47],≥ 500 mg/kg,,,,
CCN1CCC(Cc2cccc(Oc3ccccc3)c2)C1 (stereo not drawn) [Compound 83],≥ 500 mg/kg,,,188 s,100%
CCN1C(=O)C(=Cc2cccc(Oc3ccccc3)c2)CC1C (stereo not drawn) [Compound 53],≥ 500 mg/kg,114 s,50%,,
O=C1NCCC1=Cc1ccccc1Oc1ccccc1 [Compound 3],≥ 500 mg/kg,173 s,75%,,
CCCCC1C(=Cc2cccc(Oc3ccccc3)c2)CCN1CC (stereo not drawn) [Compound 79],≥ 500 mg/kg,,,168 s,50%
C(=C1CCN(C2CC2)C1)c1cccc(Oc2ccccc2)c1 [Compound 85],≥ 500 mg/kg,,,97 s,25%
"C1=Cc2cccc(OCC3CNCCO3)c2C1 (stereo not drawn) [Indeloxazine hydrochloride, reference compound]",,131 s,43%,,
COCCN1CCC(=Cc2cccc(Oc3ccccc3)c2)C1=O [Compound 23],≥ 500 mg/kg,71 s,50%,,
CCN1CCC(=Cc2ccc(Oc3ccccc3)cc2)C1=O [Compound 14],≥ 500 mg/kg,100 s,25%,,
CC1CNC(=O)C1=Cc1cccc(Oc2ccccc2)c1 (stereo not drawn) [Compound 60],≥ 500 mg/kg,,,,
O=C1NCCC1=Cc1cccc(Oc2ccc(Cl)cc2)c1 [Compound 6],≥ 500 mg/kg,101 s,31%,,
O=C(O)CN1CCC(=Cc2cccc(Oc3ccccc3)c2)C1=O [Compound 29],≥ 500 mg/kg,,,,
CCOC(=O)N1CCC(=Cc2cccc(Oc3ccccc3)c2)C1 [Compound 72],≥ 500 mg/kg,,,,
Nc1cc(C=C2CCNC2=O)ccc1Oc1ccccc1 [Compound 8],≥ 500 mg/kg,118 s,38%,,
CCC1C(=Cc2cccc(Oc3ccccc3)c2)CCN1C(C)=O (stereo not drawn) [Compound 80],≥ 500 mg/kg,,,100 s,50%
COc1ccc(Oc2cccc(C=C3CCNC3=O)c2)cc1 [Compound 5],≥ 500 mg/kg,134 s,50%,,
CCOC(=O)CN1CCC(=Cc2cccc(Oc3ccccc3)c2)C1=O [Compound 28],≥ 500 mg/kg,100 s,50%,,
CC(=O)N1CCC(=Cc2cccc(Oc3ccccc3)c2)C1=O [Compound 41],≥ 500 mg/kg,80 s,25%,,
C=CN1CCC(=Cc2cccc(Oc3ccccc3)c2)C1=O [Compound 21],≥ 500 mg/kg,,,,
COC1CC(=Cc2cccc(Oc3ccccc3)c2)C(=O)N1 (stereo not drawn) [Compound 55],≥ 500 mg/kg,80 s,25%,,
O=C1C(=Cc2cccc(Oc3ccccc3)c2)CCN1CCOC1CCCCO1 (stereo not drawn) [Compound 24],≥ 500 mg/kg,109 s,38%,,
CN(C)CCN1CCC(=Cc2cccc(Oc3ccccc3)c2)C1=O [Compound 40],≥ 500 mg/kg,,,116 s,50%
COc1ccc(C(=O)N2CCC(=Cc3cccc(Oc4ccccc4)c3)C2=O)cc1 [Compound 43],≥ 500 mg/kg,179 s,100%,,

SMILES,LD50 at 336 h [1],Step-through latency ([2]; 3 mg/kg oral),responders at 3 mg/kg ([2]; 3 mg/kg oral),Step-through latency ([2]; 1 mg/kg oral),responders at 1 mg/kg ([2]; 1 mg/kg oral)
CCN1C(=O)C(=Cc2cccc(Oc3ccccc3)c2)CC1O (stereo not drawn) [Compound 54],≥ 500 mg/kg,,,,
O=C1C(=Cc2cccc(Oc3ccccc3)c2)CCN1C1CC1 [Compound 17],≥ 500 mg/kg,,,,
O=C1NCCC1Cc1cccc(Oc2ccccc2)c1 (stereo not drawn) [Compound 81],≥ 500 mg/kg,,,70 s,25%
NC(=O)N1CCC(=Cc2cccc(Oc3ccccc3)c2)C1=O [Compound 30],≥ 500 mg/kg,,,,
CC1CC(=Cc2cccc(Oc3ccccc3)c2)C(=O)N1 (stereo not drawn) [Compound 52],≥ 500 mg/kg,120 s,50%,,
CCCCN1CCC(=Cc2cccc(Oc3ccccc3)c2)C1=O [Compound 12],≥ 500 mg/kg,152 s,63%,,
COc1ccc(NC(=O)N2CCC(=Cc3cccc(Oc4ccccc4)c3)C2=O)cc1 [Compound 31],≥ 500 mg/kg,100 s,50%,,
O=C1C(=Cc2cccc(Oc3ccccc3)c2)CCN1CCO [Compound 25],≥ 500 mg/kg,,,,
C=CCN1CCC(=Cc2cccc(Oc3ccccc3)c2)C1 [Compound 69],≥ 500 mg/kg,,,102 s,50%
CC(=O)CN1CCC(=Cc2cccc(Oc3ccccc3)c2)C1=O [Compound 45],≥ 500 mg/kg,,,169 s,50%
NC(=O)N1CCC(=Cc2cccc(Oc3ccccc3)c2)C1 [Compound 73],≥ 500 mg/kg,,,119 s,50%
O=C1NC(CO)CC1=Cc1cccc(Oc2ccccc2)c1 (stereo not drawn) [Compound 58],≥ 500 mg/kg,,,111 s,50%
CC(=O)N1CCC(=Cc2cccc(Oc3ccccc3)c2)C1 [Compound 74],≥ 500 mg/kg,,,107 s,50%
C(=C1CCN(CCOC2CCCCO2)C1)c1cccc(Oc2ccccc2)c1 (stereo not drawn) [Compound 70],≥ 500 mg/kg,,,,
CCOC1CC(=Cc2cccc(Oc3ccccc3)c2)C(=O)N1CC (stereo not drawn) [Compound 57],≥ 500 mg/kg,157 s,50%,,
CCN1CCC(=Cc2cccc(Oc3ccc(C)cc3)c2)C1 [Compound 19],≥ 500 mg/kg,,,177 s,75%
CCCCN1CCC(=Cc2cccc(Oc3ccccc3)c2)C1 [Compound 68],≥ 500 mg/kg,,,179 s,75%
N#CCN1CCC(=Cc2cccc(Oc3ccccc3)c2)C1=O [Compound 37],≥ 500 mg/kg,,,110 s,50%
O=C(C=Cc1ccccc1)N1CCC(=Cc2cccc(Oc3ccccc3)c2)C1=O [Compound 44],≥ 500 mg/kg,132 s,38%,,
CNC(=O)CN1CCC(=Cc2cccc(Oc3ccccc3)c2)C1=O [Compound 34],≥ 500 mg/kg,,,,
CCN1CCC(=Cc2ccc(Oc3ccccc3)cc2)C1 [Compound 18],≥ 500 mg/kg,,,,
O=C1C(=Cc2cccc(Oc3ccccc3)c2)CCN1CCCl [Compound 27],≥ 500 mg/kg,,,,
O=C1C(=Cc2cccc(Oc3ccccc3)c2)CCN1CCc1ccccc1 [Compound 51],≥ 500 mg/kg,,,,
NCCN1CCC(=Cc2cccc(Oc3ccccc3)c2)C1=O [Compound 39],≥ 500 mg/kg,,,,
Cc1ccc(Oc2cccc(C=C3CCNC3=O)c2)cc1 [Compound 4],≥ 500 mg/kg,,,,
CCN1CCC(=Cc2cccc(Oc3ccc(C)cc3)c2)C1=O [Compound 15],≥ 500 mg/kg,,,,
CCC1NCCC1=Cc1cccc(Oc2ccccc2)c1 (stereo not drawn) [Compound 77],≥ 500 mg/kg,,,,
